Results from publication PMC10331583, “Control of fibrosis with enhanced safety via asymmetric inhibition of prolyl‐tRNA synthetase 1” (EMBO Molecular Medicine, 2023).
“And” between values parts separate entries of the source, which are not always exact repeats. Equal entries are not always repeated. Where two headings read alike, the source gives them in different places.

Legend:
[1] = test system: TNT Quick Coupled Transcription/Translation System (luciferase synthesis); type: biochemical
[2] = test system: WI‐26 VA4 cells; test: Puromycin incorporation assay; type: cell-based, human; conditions: for activity at 0.003 µM: WI26VA4, 3 nM; for activity at 0.01 µM: WI26VA4, 10 nM; for activity at 0.03 µM: WI26VA4, 30 nM; for activity at 0.1 µM: WI26VA4, 100 nM; for activity at 0.3 µM: WI26VA4, 300 nM; for activity at 0.5 µM: WI26VA4, 500 nM; for activity at 1 µM: WI26VA4, 1000 nM
Outline: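 WI‐26 VA4 cell lysates prepared in carbonate-bicarbonate buffer with protease inhibitor; 400 ng protein coated on ELISA plates 18 h at 4°C. Puromycin incorporated into proteins detected by antibody ELISA, absorbance 450 nm with 620 nm reference; outlier values excluded based on replicates and adjacent concentrations.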

[3] = Homo sapiens, read-out: Puromycin, % of control, average
[4] = Homo sapiens, read-out: Puromycin, % of control, single replicate

SMILES: Cc1c(Br)cnc2c1ncn2CC(=O)C[C@H]1NCCC[C@@H]1O [DWN11761]
- TNT-luciferase % of control ([1]; 6 nM, Experiment #1, replicates, 0.006 µM): 103.28 % of control and 100.82 % of control and 110.66 % of control
- TNT-luciferase % of control ([1]; 6 nM, Experiment #2, replicates, 0.006 µM): 86.60 % of control and 91.24 % of control and 93.56 % of control
- TNT-luciferase % of control ([1]; 6 nM, Experiment #3, replicates, 0.006 µM): 100.46 % of control and 97.13 % of control and 93.79 % of control
- TNT-luciferase % of control, average ([1]; 6 nM): 97.50 % of control
- TNT-luciferase % of control ([1]; 20 nM, Experiment #1, replicates, 0.02 µM): 108.20 % of control and 109.84 % of control (2×)
- TNT-luciferase % of control ([1]; 20 nM, Experiment #2, replicates, 0.02 µM): 85.82 % of control and 94.33 % of control and 98.20 % of control
- TNT-luciferase % of control ([1]; 20 nM, Experiment #3, replicates, 0.02 µM): 98.25 % of control and 93.99 % of control and 91.88 % of control
- TNT-luciferase % of control, average ([1]; 20 nM): 98.93 % of control
- TNT-luciferase % of control ([1]; 60 nM, Experiment #1, replicates, 0.06 µM): 130.33 % of control and 132.79 % of control and 131.97 % of control
- TNT-luciferase % of control ([1]; 60 nM, Experiment #2, replicates, 0.06 µM): 90.46 % of control and 98.97 % of control and 95.10 % of control
- TNT-luciferase % of control ([1]; 60 nM, Experiment #3, replicates, 0.06 µM): 100.65 % of control and 91.36 % of control and 86.32 % of control
- TNT-luciferase % of control, average ([1]; 60 nM): 106.44 % of control
- TNT-luciferase % of control ([1]; 200 nM, Experiment #1, replicates, 0.2 µM): 106.56 % of control and 109.84 % of control and 110.66 % of control
- TNT-luciferase % of control ([1]; 200 nM, Experiment #2, replicates, 0.2 µM): 68.51 % of control and 71.29 % of control and 70.98 % of control
- TNT-luciferase % of control ([1]; 200 nM, Experiment #3, replicates, 0.2 µM): 96.73 % of control and 90.18 % of control and 101.79 % of control
- TNT-luciferase % of control, average ([1]; 200 nM): 91.84 % of control
- TNT-luciferase % of control ([1]; 600 nM, Experiment #1, replicates, 0.6 µM): 44.18 % of control and 45.33 % of control and 50.74 % of control
- TNT-luciferase % of control ([1]; 600 nM, Experiment #2, replicates, 0.6 µM): 46.24 % of control and 47.63 % of control and 53.81 % of control
- TNT-luciferase % of control ([1]; 600 nM, Experiment #3, replicates, 0.6 µM): 54.77 % of control and 51.07 % of control and 57.11 % of control
- TNT-luciferase % of control, average ([1]; 600 nM): 50.10 % of control
- TNT-luciferase % of control ([1]; 2000 nM, Experiment #1, replicates, 2 µM): 2.25 % of control and 2.32 % of control and 2.42 % of control
- TNT-luciferase % of control ([1]; 2000 nM, Experiment #2, replicates, 2 µM): 3.17 % of control and 3.09 % of control and 3.97 % of control
- TNT-luciferase % of control ([1]; 2000 nM, Experiment #3, replicates, 2 µM): 3.31 % of control and 3.19 % of control and 3.30 % of control
- TNT-luciferase % of control, average ([1]; 2000 nM): 3.00 % of control
- TNT-luciferase % of control ([1]; 6000 nM, Experiment #1, replicates, 6 µM): 0.05 % of control and 0.047 % of control and 0.06 % of control
- TNT-luciferase % of control ([1]; 6000 nM, Experiment #2, replicates, 6 µM): 0.15 % of control and 0.14 % of control (2×)
- TNT-luciferase % of control ([1]; 6000 nM, Experiment #3, replicates, 6 µM): 0.14 % of control (2×) and 0.12 % of control
- TNT-luciferase % of control, average ([1]; 6000 nM): 0.11 % of control
- TNT-luciferase % of control ([1]; 20000 nM, Experiment #1, replicates, 20 µM): -0.0091 % of control and -0.014 % of control and -0.00199 % of control
- TNT-luciferase % of control ([1]; 20000 nM, Experiment #2, replicates, 20 µM): 0.00206 % of control and -0.00211 % of control and -0.00412 % of control
- TNT-luciferase % of control ([1]; 20000 nM, Experiment #3, replicates, 20 µM): 0.02 % of control and -0.0067 % of control and 0.00433 % of control
- TNT-luciferase % of control, average ([1]; 20000 nM): -0.00128 % of control
- TNT-luciferase LogIC50 (best-fit value) ([1]; log(inhibitor) vs. response, variable slope (four parameters), concentration in nM): 2.775
- IC50 ([1]; log(inhibitor) vs. response, variable slope (four parameters), unit from head concentration (nM), read-out: TNT-luciferase IC50 (best-fit value)): 595 nM
- Puromycin, % of control, single replicate ([2]; 3 nM, 0.003 µM): 104.76 % of control and 100.60 % of control and 105.06 % of control and 105.49 % of control and 105.21 % of control and 111.96 % of control and 104.24 % of control
- Puromycin, % of control, single replicate ([2]; 10 nM, 0.01 µM): 99.99 % of control and 99.81 % of control and 108.66 % of control and 104.16 % of control and 106.55 % of control and 105.60 % of control and 106.56 % of control
- Puromycin, % of control, single replicate ([2]; 30 nM, 0.03 µM): 101.89 % of control and 99.32 % of control and 110.82 % of control and 110.04 % of control and 108.90 % of control and 103.15 % of control and 106.42 % of control
- Puromycin, % of control, single replicate ([2]; 100 nM, 0.1 µM): 112.55 % of control and 117.55 % of control and 127.48 % of control and 125.28 % of control and 125.52 % of control and 127.16 % of control and 126.25 % of control
- Puromycin, % of control, single replicate ([2]; 300 nM, 0.3 µM): 109.98 % of control and 112.11 % of control and 119.25 % of control and 120.23 % of control and 124.85 % of control and 125.66 % of control and 106.56 % of control
- Puromycin, % of control, single replicate ([2]; 500 nM, 0.5 µM): 54.77 % of control and 53.35 % of control and 56.10 % of control and 56.57 % of control and 57.43 % of control and 59.14 % of control and 54.96 % of control
- Puromycin, % of control, single replicate ([2]; 1000 nM, 1 µM): 28.04 % of control and 30.25 % of control and 30.46 % of control and 30.97 % of control and 31.52 % of control and 29.73 % of control and 28.78 % of control
- Puromycin, % of control, single replicate ([2]; 3000 nM, 3 µM): 0.34 % of control and -0.19 % of control and -0.45 % of control and 0.86 % of control and 1.02 % of control and 0.90 % of control and 0.51 % of control and -0.71 % of control
- Puromycin, % of control, single replicate ([2]; 10000 nM, 10 µM): 0.48 % of control and -0.27 % of control and -0.54 % of control and 1.84 % of control and 0.67 % of control and 0.24 % of control and 0.33 % of control and 0.60 % of control
- Puromycin, % of control, single replicate ([2]; 100000 nM, 100 µM): 0.17 % of control and 0.43 % of control and -0.14 % of control and 0.04 % of control and 0.27 % of control and -0.04 % of control and 0.92 % of control and 0.65 % of control
- activity at 0.003 µM [2, 3]: 105%
- activity at 0.003 µM [2, 4]: 104%
- activity at 0.01 µM [2, 3]: 104%
- activity at 0.01 µM [2, 4]: 101%
- activity at 0.03 µM [2, 3]: 105%
- activity at 0.03 µM [2, 4]: 103%
- activity at 0.1 µM [2, 3]: 122%
- activity at 0.1 µM [2, 4]: 114%
- activity at 0.3 µM [2, 3]: 117%
- activity at 0.3 µM [2, 4]: 115%
- activity at 0.5 µM [2, 3]: 55.6%
- activity at 0.5 µM [2, 4]: 52.3%
- activity at 1 µM [2, 3]: 29.5%
- activity at 1 µM [2, 4]: 26.2%
- activity at 3 µM ([2]; Homo sapiens, WI26VA4, 3000 nM, read-out: Puromycin, % of control, average): 0.29%
- activity at 10 µM ([2]; Homo sapiens, WI26VA4, 10000 nM, read-out: Puromycin, % of control, average): 0.42%
